Measured values as given in patent US7923465B2, “Cannabinoid receptor ligands, pharmaceutical compositions containing them, and process for their preparation” (priority 2005, dated 2011).
Read-outs that look alike come from different tables or passages of the source.

Legend:
hCB2 = hCB2 (Homo sapiens, UniProt P34972); test: In vitro binding assay using hCB2-CHO membranes, [3H]-CP-55,940 displacement (Protocol IV); parameters: expressed in transfected cells; host or cells: CHO (hCB2-CHO, generated in-house); conditions: 1 h, read-out: % Displacement Protocol IV
Sequence of hCB2 (P34972 whole entry): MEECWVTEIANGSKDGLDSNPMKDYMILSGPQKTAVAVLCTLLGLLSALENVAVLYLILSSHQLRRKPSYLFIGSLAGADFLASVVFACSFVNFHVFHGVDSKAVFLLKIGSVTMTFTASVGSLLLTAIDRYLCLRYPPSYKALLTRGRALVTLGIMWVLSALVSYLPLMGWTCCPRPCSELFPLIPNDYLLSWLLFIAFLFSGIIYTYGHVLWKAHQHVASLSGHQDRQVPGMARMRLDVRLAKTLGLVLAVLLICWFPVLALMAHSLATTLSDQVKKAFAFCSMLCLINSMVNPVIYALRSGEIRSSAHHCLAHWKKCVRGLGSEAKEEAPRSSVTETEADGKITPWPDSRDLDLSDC
Procedure, shortened: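 Compounds were tested at a single 300 nM final concentration for displacing 0.75 nM [3H]-CP-55,940 from hCB2-CHO membranes (1 h, 30 °C, 50 mM Tris pH 7.4, 5 mM MgCl2, 1 mM EDTA, 0.1% BSA). Filter-bound radioactivity was counted, with 0.5 μM unlabelled CP-55,940 for nonspecific binding; results are % displacement.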

CB1 [1] = target: T1, CB1 (Rattus norvegicus, UniProt P20272); test: Rat CB1 receptor binding using brain membrane, [3H]SR141716A displacement (Protocol I); parameters: CB1 receptor present in a rat brain membrane preparation; from tissue; host or cells: rat brain membrane; inhibition: dose or concentration left out as unconfirmed; conditions: 1 h
T1 sequence (P20272 whole entry): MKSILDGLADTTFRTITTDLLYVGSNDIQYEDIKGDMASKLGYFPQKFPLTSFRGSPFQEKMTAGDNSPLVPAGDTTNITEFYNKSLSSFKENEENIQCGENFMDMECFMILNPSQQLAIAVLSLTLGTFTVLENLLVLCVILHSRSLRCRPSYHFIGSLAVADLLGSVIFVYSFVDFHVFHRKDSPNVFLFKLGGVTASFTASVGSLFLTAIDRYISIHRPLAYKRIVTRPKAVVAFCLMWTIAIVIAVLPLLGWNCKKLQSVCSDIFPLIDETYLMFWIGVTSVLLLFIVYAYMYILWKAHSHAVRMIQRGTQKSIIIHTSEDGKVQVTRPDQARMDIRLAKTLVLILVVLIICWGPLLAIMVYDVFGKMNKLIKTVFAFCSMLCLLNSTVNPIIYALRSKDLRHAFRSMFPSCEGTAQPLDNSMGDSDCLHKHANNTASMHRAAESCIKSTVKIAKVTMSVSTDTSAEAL

CB1 [2] = target: T1, CB1; test: GTPγS binding assay, CB1 functional assay in rat cerebellar membrane (Protocol VIII); format: biochemical; parameters: 10 μg rat cerebellum membrane; from tissue; host or cells: rat cerebellum membrane, prepared in-house; conditions: for activation at 1 µM / activation at 0.3 µM: 1 h, read-out: Per Se % Stimulation; for inhibition at 1 µM / inhibition at 0.3 µM: read-out: % Inhibition of WIN-55212-2 induced stimulation; for activation at 0.3 µM: tested at 300 nM; for inhibition at 0.3 µM: tested at 300 nM in presence of 1 μM WIN 55,212-2
Protocol: VIII. Protocol for GTPγS Binding Assay (CB1 Functional Assay in Rat Cerebellar Membrane)
In this GTPγS binding assay, total, basal and nonspecific binding were determined. See Griffin G., Atkinson P. J., Showalter V. M., Martin B. R. and Abood M. E., “Evaluation of cannabinoid receptor agonists and antagonists using the Guanosine-5′-O-(3-(^35S)thio)-triphosphate binding assay in rat cerebellar membranes,” J Pharmacol Exp Ther 285: 553-560, 1998. Three wells for total binding, three wells for basal binding, and three wells for nonspecific binding at 0.2 nM concentration of radioligand were used. Basal binding was defined by 50 μM GDP (Guanosine diphosphate) and non-specific binding was defined by 10 μM unlabeled GTPγS. 10 μg rat cerebellum membrane, 50 μM of GDP, WIN-55212-2 or test compound (1 μM or 300 nM), 10 μM unlabeled GTPγs, and 0.2 nM of [^35S]GTPγS were added into a 96 well plate and the final volume of the reaction mixture was made with GTPγS buffer (50 mM Tris, 3 mM anhydrous MgCl2, 0.2 mM EGTA and 100 mM NaCl pH 7.4) to 200 μl. The plates were incubated at 30° C. for 1 hour. Then the reaction was stopped by filtration using a Whatman GF/B-96 microfilter plate. Three washings were given using Tris-HCl. The radioactivity bound to the brain membrane was retained on the filter disks to which scintillation fluid was added (Microscint PS). Then plates were read for radioactive counts using a Beta Liquid Scintillation Counter (Packard Instruments, Ill., USA).
The rat cerebellar brain membrane was prepared as follow: • 1. Sacrifice the rat and take out the whole brain and separate cerebellum as fast as possible and keep it on ice. • 2. Take the weight of the cerebellum and homogenize in 30 ml of homogenizing buffer (50 mM Tris-HCL containing 1 mM EDTA and 5% sucrose, pH 7.5) using homogenizer in cold condition. • 3. Centrifuge the homogenized cerebellum at 18000 rpm (38000 g) for 15 min at 4° C. • 4. Resuspend the pellet in 5 ml 50 mM Tris-HCL containing 1 mM EDTA and keep it on ice for 30 min. • 5. Pass the membrane through insulin syringe to ensure uniform suspension. • 6. Centrifuge the membrane at 18000 rpm at 4° C. for 20 min. • 7. Reconstitute the pellet in 3 ml of GTPγS buffer and estimate the protein by BCA assay and store the membrane in aliquots of 1000 μg of protein. CB1 Agonist and Antagonist Activity Screening Assay
The test compounds were screened at a final concentration of 1 μM or 300 nM in the absence and presence of 1 μM of WIN 55, 212-2 in the same manner as described in the GTPγS binding assay.
An agonist will stimulate the GTPγS binding over the basal.
An inverse agonist will decrease the basal GTPγS binding and/or produce more than 100% inhibition of the agonist (WIN-55212-2) induced stimulation.
The percent stimulation of GTPγS binding by each test compound at 1 μM or 300 nM concentration in the absence and presence of 1 μM WIN 55, 212-2 was calculated by comparing it with basal specific bound (Basal binding—Non Specific binding) values.

[3] = hCB2-CHO membranes, [3H]-CP-55,940 displacement
[4] = rat brain membrane, [3H]SR141716A displacement, read-out: % Displacement Protocol I
[5] = GTPγS binding over basal, rat cerebellar membrane, tested at 1 uM
[6] = GTPγS binding, tested at 1 uM in presence of 1 μM WIN 55,212-2
[7] = read-out: % Displacement Protocol I, rat brain membrane, [3H]SR141716A displacement
[8] = GTPγS binding over basal, rat cerebellar membrane

With `O=C(NNc1ccccc1)c1nn(-c2ccc(Cl)cc2)c2c1C1CC3CC(C1)CC2C3` [Example 121, N(7)-(N′-phenylamino)-5-(4-chlorophenyl)-5,6-diazatetracyclo[7.3.1.1^3,11.0^4,8]tetradeca-4(8),6-diene-7-carboxamide] the inhibition at 0.3 µM (hCB2; [3]) was 29.8%, the inhibition (CB1 [1]; [4]) was 65.4% and the melting point was 103 to 105 °C. For the same compound, the “Per Se % Stimulation” value (CB1 [2]; [5]) was 16.0% and the “% Inhibition of WIN-55212-2 induced stimulation” value (CB1 [2]; [6]) was 81.3%.
Work on `O=C(NNc1ccccc1Cl)c1nn(-c2ccc(Cl)cc2)c2c1C1CC3CC(C1)CC2C3` [Example 123, N(7)-(2-Chlorophenylamino)-5-(4-chlorophenyl)-5,6-diazatetracyclo[7.3.1.1^3,11.0^4,8]tetradeca-4(8),6-diene-7-carboxamide] yielded an inhibition at 0.3 µM (hCB2; [3]) of 47.6%, an inhibition (CB1 [1]; [4]) of 89% and a melting point of 155 °C. For the same compound, the activation at 1 µM (CB1 [2]; [5]) was 13.5% and the inhibition at 1 µM (CB1 [2]; [6]) was 99.1%.
Work on `Cl.O=C(NNc1ccc(F)cc1)c1nn(-c2ccc(Cl)cc2)c2c1C1CC3CC(C1)CC2C3` [Example 131, N(7)-(4-Fluorophenylamino)-5-(4-chlorophenyl)-5,6-diazatetracyclo[7.3.1.1^3,11.0^4,8]tetradeca-4(8),6-diene-7-carboxamide hydrochloride] yielded an inhibition at 0.3 µM (hCB2) of 10.8%, an inhibition (CB1 [1]; [7]) of 85.2% and a melting point of 175 °C. For the same compound, the activation at 1 µM (CB1 [2]; [5]) was -1.7% and the inhibition at 1 µM (CB1 [2]; [6]) was 86%.
For `O=C(NNc1ccc(F)cc1F)c1nn(-c2ccc(Cl)cc2)c2c1C1CC3CC(C1)CC2C3` [Example 132, N(7)-(2,4-Difluorophenylamino]-5-(4-chlorophenyl)-5,6-diazatetracyclo[7.3.1.1^3,11.0^4,8]tetradeca-4(8),6-diene-7-carboxamide], the inhibition at 0.3 µM (hCB2; [3]) was 3.94%, the inhibition (CB1 [1]; [4]) was 64.5% and the melting point was 195 to 196 °C. The activation at 1 µM (CB1 [2]; [5]) was 7.2% and the inhibition at 1 µM (CB1 [2]; [6]) was 89.2%.
Compound `Cc1ccc(-n2nc(C(=O)NCc3ccccc3Cl)c3c2C2CC4CC(CC3C4)C2)cc1` [Example 162, N(7)-(2-Chlorobenzyl)-5-(4-methylphenyl)-5,6-diazatetracyclo[7.3.1.1^3,11.0^4,8]tetradeca-4(8),6-diene-7-carboxamide] has an inhibition at 0.3 µM (hCB2; [3]) of 33.8%, an inhibition (CB1 [1]; [4]) of 38.9% and a melting point of 127 to 130 °C. For the same compound, the activation at 0.3 µM (CB1 [2]; [8]) was -29.2% and the inhibition at 0.3 µM (CB1 [2]; GTPγS binding) was 72%.
Work on `O=C(NCc1ccc(F)cc1)c1nn(-c2ccc(Cl)cc2Cl)c2c1C1CC3CC(C1)CC2C3` [Example 172, N(7)-(4-Fluorobenzyl)-5-(2,4-dichlorophenyl)-5,6-diazatetracyclo[7.3.1.1^3,11.0^4,8]tetradeca-4(8),6-diene-7-carboxamide] yielded an inhibition at 0.3 µM (hCB2; [3]) of 25.1%, an inhibition (CB1 [1]; [4]) of 59.2% and a melting point of 68 to 70 °C. The activation at 1 µM (CB1 [2]; [5]) was -18.3% and the inhibition at 1 µM (CB1 [2]; [6]) was 115%.
In the case of `O=C(NNc1ccccc1Cl)c1nn(-c2ccc(Cl)cc2Cl)c2c1C1CC3CC(C1)CC2C3` [Example 174, N(7)-(2-Chlorophenylamino)-5-(2,4-dichlorophenyl)-5,6-diazatetracyclo[7.3.1.1^3,11.0^4,8]tetradeca-4(8),6-diene-7-carboxamide], the inhibition at 0.3 µM (hCB2; [3]) was 22.5%, the inhibition (CB1 [1]; [4]) was 76.4% and the melting point was 110 °C. For the same compound, the activation at 1 µM (CB1 [2]; [5]) was -20.8% and the inhibition at 1 µM (CB1 [2]; [6]) was 75.5%.
Compound `O=C(NCCc1ccccc1)c1nn(-c2ccc(Cl)cc2Cl)c2c1C1CC3CC(C1)CC2C3` [Example 178, N(7)-(2-Phenylethyl)-5-(2,4-dichlorophenyl)-5,6-diazatetracyclo[7.3.1.1^3,11.0^4,8]tetradeca-4(8),6-diene-7-carboxamide] has an inhibition at 0.3 µM (hCB2; [3]) of 6.04%, an inhibition (CB1 [1]; [4]) of 47% and a melting point of 63 to 66 °C. It also gave an activation at 1 µM (CB1 [2]; [5]) of -0.7% and an inhibition at 1 µM (CB1 [2]; [6]) of 88%.
For `CC12CCC(C1)C(C)(C)C2NC(=O)c1nn(-c2ccc(Cl)cc2Cl)c2c1C1CCC2C1` (centres unmarked) [Example 241, N(3)-(1,3,3-Trimethylbicyclo[2.2.1]hept-2-yl)-1-(2,4-dichlorophenyl)-4,5,6,7-tetrahydro-1H-4,7-methano-indazole-3-carboxamide], the inhibition (CB1 [1]; [7]) was 92.5%, the melting point was 156 to 159 °C and the activation at 0.3 µM (CB1 [2]; [8]) was 54.7%. The inhibition at 0.3 µM (CB1 [2]; GTPγS binding) was 32.9%.
Compound `C[C@@H](NC(=O)c1nn(-c2ccc(Cl)cc2Cl)c2c1C1CCC2C1)c1ccccc1` (stereo partly drawn) [Example 253, N(3)-[R-(1-phenylethyl)]-1-(2,4-dichlorophenyl)-4,5,6,7-tetrahydro-1H-4,7-methano-indazole-3-carboxamide] has an inhibition (CB1 [1]; [4]) of 63%, a melting point of 89 to 92 °C and an activation at 0.3 µM (CB1 [2]; [8]) of -9.3%. It also gave an inhibition at 0.3 µM (CB1 [2]; GTPγS binding) of 79.9%.
For `O=C(NNc1ccccc1)c1nn(-c2ccc(Cl)cc2Cl)c2c1C1CCC2C1` (centres unmarked) [Example 256, N(3)-Phenylamino-1-(2,4-dichlorophenyl)-4,5,6,7-tetrahydro-1H-4,7-methano-indazole-3-carboxamide], the inhibition (CB1 [1]; [4]) was 63.3%, the melting point was 182 to 185 °C and the activation at 1 µM (CB1 [2]; [5]) was -21.5%. It also gave an inhibition at 1 µM (CB1 [2]; [6]) of 69.7%.
Work on `O=C(NNc1ncccc1Cl)c1nn(-c2ccc(Cl)cc2Cl)c2c1C1CCC2C1` (centres unmarked) [Example 267, N(3)-[(3-chloropyridin-2-yl)amino]-1-(2,4-dichlorophenyl)-4,5,6,7-tetrahydro-1H-4,7-methano-indazole-3-carboxamide] yielded an inhibition (CB1 [1]; [4]) of 90%, a melting point of 95 °C and an activation at 0.3 µM (CB1 [2]; [8]) of 12.3%. The inhibition at 0.3 µM (CB1 [2]; GTPγS binding) was 43.6%.
`O=C(NC1CCCCC1)c1nn(-c2ccc(F)cc2F)c2c1C1CCC2C1` (centres unmarked) [Example 290, N(3)-Cyclohexyl-1-(2,4-difluorophenyl)-4,5,6,7-tetrahydro-1H-4,7-methano-indazole-3-carboxamide] gave an inhibition (CB1 [1]; [7]) of 80.3%, a melting point of 119 °C and an activation at 1 µM (CB1 [2]; [5]) of 3.8%. It also gave an inhibition at 1 µM (CB1 [2]; [6]) of 35.3%.
`O=C(NCc1ccccc1)c1nn(-c2ccc(Cl)cc2Cl)c2c1C1CCC2c2ccccc21` (centres unmarked) [Example 501, N(12)-Benzyl-10-(2,4-dichlorophenyl)-10,11-diazatetracyclo[6.5.2.0^2,7.0^9,13]pentadeca-2,4,6,9(13),11-pentaene-12-carboxamide] gave an inhibition (CB1 [1]; [4]) of 82.5%, a melting point of 164 to 166 °C and an activation at 1 µM (CB1 [2]; [5]) of 53.7%. For the same compound, the inhibition at 1 µM (CB1 [2]; [6]) was 40.1%.
With `O=C(NN1CCCCC1)c1nn(-c2ccc(Cl)cc2Cl)c2c1C1CCC2c2ccccc21` (centres unmarked) [Example 502, N(12)-Piperidino-10-(2,4-dichlorophenyl)-10,11-diazatetracyclo[6.5.2.0^2,7.0^9,13]pentadeca-2,4,6,9(13),11-pentaene-12-carboxamide] the inhibition (CB1 [1]; [4]) was 81.3%, the melting point was 164 to 166 °C and the activation at 1 µM (CB1 [2]; [5]) was 1.8%. The inhibition at 1 µM (CB1 [2]; [6]) was 91.1%.
